Experiments:
Format in all cases: in vivo
[1] = tested on: Echinochloa crus-galli; assay: Test Example 3: herbicidal effect test by soil application in upland field; details: 120 g per 10 ares, sprayed one day after sowing, 14 days after application; for inhibition at 1200 g/ha: Echinochloa crus-galli, read-out: weed inhibition rate
In short: (§1)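 Weed inhibition (%) was assessed 14 days after treatment, in duplicate per concentration group. Seeds had been mixed into the upper 1 cm of upland alluvial loam, and the soil surface was sprayed one day later with the diluted emulsifiable concentrate at 120 g active ingredient per 10 ares.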

[2] = tested on: Digitaria ciliaris; assay: as above; details: 120 g per 10 ares, sprayed one day after sowing, 14 days after application; for inhibition at 1200 g/ha: Digitaria ciliaris, read-out: weed inhibition rate
In short: as §1

[3] = tested on: Scirpus juncoides; assay: Test Example 2: herbicidal effect test by application during growth period of paddy rice; details: 120 g per 10 ares, applied seven days after sowing, flooded pots, 14 days after application; for inhibition at 1200 g/ha: Schoenoplectiella juncoides, read-out: weed inhibition rate
In short: (§2)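 Greenhouse pots of flooded paddy soil, seeded shallowly with 30 seeds per weed, are treated on day 7 by dropper with diluted emulsifiable concentrate equal to 120 g a.i./10 a. Duplicate pots are scored for inhibition rate 14 days post-application.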

[4] = tested on: Echinochloa crus-galli var. formosensis; assay: as above; details: 120 g per 10 ares, applied seven days after sowing, flooded pots, 14 days after application; for inhibition at 1200 g/ha: Echinochloa crus-galli, read-out: weed inhibition rate
In short: as §2

[5] = tested on: Echinochloa crus-galli var. formosensis; assay: Test Example 5: herbicidal effect test by soil application in paddy rice (low dose); details: 7.5 g per 10 ares, applied immediately after sowing, flooded pots, 14 days after application; for inhibition at 75 g/ha: Echinochloa crus-galli, soil, 336 h, read-out: weed inhibition rate
In short: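 7.5 g a.i./10 a applied by dropper into ~3 cm floodwater immediately post-sowing (seeds 0–1 cm, 30 per species; puddled fertilized paddy soil, glasshouse). Duplicates; day-14 inhibition %.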

[6] = tested on: Echinochloa crus-galli; assay: Test Example 7: herbicidal effect test by soil application in upland field (low dose); details: 7.5 g per 10 ares, sprayed one day after sowing, 14 days after application; for inhibition at 75 g/ha: Echinochloa crus-galli, read-out: weed inhibition rate
Protocol: (§3) The present test was conducted in duplicate for each chemical concentration group, and the weed inhibition rate (%) was determined 14 days after chemical application using the following formula (Math. 1). [formula]
(§4) Pots with an area of 36 cm^2 were filled with upland soil (alluvial loam), twenty seeds each of weeds of Digitaria ciliaris, and Echinochloa crus-galli were uniformly mixed with the top 1 cm layer of soil and the surface was lightly pressed down. One day after sowing, an emulsifiable concentrate prepared according to Formulation Example 5 using the compound shown below was diluted with water, and the diluted solution was sprayed onto the soil surface at a rate of 100 liters per 10 ares. The amount of the active ingredient to be applied was equivalent to 7.5 g per 10 ares. Fourteen days after chemical application, the herbicidal effect was evaluated according to the same criteria as in Test Example 1.

[7] = tested on: Digitaria ciliaris; assay: as above; details: 7.5 g per 10 ares, sprayed one day after sowing, 14 days after application; for inhibition at 75 g/ha: Digitaria ciliaris, read-out: weed inhibition rate
Protocol: as §3, §4

[8] = tested on: Digitaria ciliaris; assay: Test Example 4: herbicidal effect test by stem and leaf treatment in upland field; details: 120 g per 10 ares, sprayed seven days after sowing, upland soil, 14 days after application; for inhibition at 1200 g/ha: Digitaria ciliaris, read-out: weed inhibition rate
[9] = tested on: Echinochloa crus-galli; assay: as above; details: 120 g per 10 ares, sprayed seven days after sowing, upland soil, 14 days after application; for inhibition at 1200 g/ha: Echinochloa crus-galli, read-out: weed inhibition rate
[10] = tested on: Echinochloa crus-galli var. formosensis; assay: Test Example 6: herbicidal effect test by application during growth period of paddy rice (low dose); details: 7.5 g per 10 ares, applied seven days after sowing, flooded pots, 14 days after application; for inhibition at 75 g/ha: Echinochloa crus-galli, read-out: weed inhibition rate
In short: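 Emulsifiable concentrate, water-diluted, dropped onto flooded paddy pots 7 days post-sowing at 7.5 g active ingredient/10 a. Greenhouse-grown weeds; percent inhibition scored at day 14 after treatment.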

[11] = tested on: Scirpus juncoides; assay: Test Example 1: herbicidal effect test by soil application in paddy rice; details: 120 g active ingredient per 10 ares, applied immediately after sowing, flooded pots, 14 days after application; for pest or weed control at 1200 g/ha: Schoenoplectiella juncoides, soil, 336 h, read-out: weed inhibition rate
In short: (§5)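 Pre-emergence paddy soil application, 120 g a.i./10 a, emulsifiable concentrate diluted in water, applied by dropper right after sowing. Seeds (30/species) sown 0–1 cm in puddled, fertilized soil; flooded ~3 cm; glass greenhouse.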

[12] = tested on: Echinochloa crus-galli var. formosensis; assay: as above; details: 120 g active ingredient per 10 ares, applied immediately after sowing, flooded pots, 14 days after application; for pest or weed control at 1200 g/ha: Echinochloa crus-galli, soil, 336 h, read-out: weed inhibition rate
In short: as §5

[13] = tested on: Echinochloa crus-galli; assay: Test Example 8: herbicidal effect test by stem and leaf treatment in upland field (low dose); details: 7.5 g per 10 ares, sprayed seven days after sowing, upland soil, 14 days after application; for inhibition at 75 g/ha: Echinochloa crus-galli, read-out: weed inhibition rate
[14] = tested on: Digitaria ciliaris; assay: as above; details: 7.5 g per 10 ares, sprayed seven days after sowing, upland soil, 14 days after application; for inhibition at 75 g/ha: Digitaria ciliaris, read-out: weed inhibition rate

CC(C)C12C=CC(C)(O1)C(OCc1ccsc1)C2 (stereo not drawn) [3-757, 1-isopropyl-4-methyl-5-(3-thienylmethoxy)-7-oxabicyclo[2.2.1]hept-2-ene]
≥ 80%: inhibition at 1200 g/ha [1] | inhibition at 1200 g/ha [2] | inhibition at 1200 g/ha [3] | inhibition at 1200 g/ha [4] | inhibition at 75 g/ha [5] | inhibition at 75 g/ha [6] | inhibition at 75 g/ha [7] | inhibition at 1200 g/ha [8] | inhibition at 1200 g/ha [9] | inhibition at 75 g/ha [10] | pest or weed control at 1200 g/ha [11] | pest or weed control at 1200 g/ha [12] | inhibition at 75 g/ha [13] | inhibition at 75 g/ha [14]

CC(C)C12CC(OCc3ccccn3)C(C)(CC1Cl)O2 (stereo not drawn) [1-1320, 2-[(5-chloro-4-isopropyl-1-methyl-7-oxabicyclo[2.2.1]heptan-2-yl)oxymethyl]pyridine]
≥ 80%: inhibition at 1200 g/ha [1] | inhibition at 1200 g/ha [2] | inhibition at 1200 g/ha [3] | inhibition at 1200 g/ha [4] | inhibition at 75 g/ha [5] | inhibition at 75 g/ha [6] | inhibition at 75 g/ha [7] | inhibition at 1200 g/ha [8] | inhibition at 1200 g/ha [9] | inhibition at 75 g/ha [10] | pest or weed control at 1200 g/ha [11] | pest or weed control at 1200 g/ha [12] | inhibition at 75 g/ha [13] | inhibition at 75 g/ha [14]

CC(C)[C@]12C[C@@H](OCc3ccccc3Cl)[C@](C)(C[C@@H]1Cl)O2 [1-13, (1R,2S,4S,5R)-2-chloro-5-[(2-chlorophenyl)methoxy]-1-isopropyl-4-methyl-7-oxabicyclo[2.2.1]heptane]
≥ 80%: inhibition at 1200 g/ha [1] | inhibition at 1200 g/ha [2] | inhibition at 1200 g/ha [3] | inhibition at 1200 g/ha [4] | inhibition at 75 g/ha [5] | inhibition at 75 g/ha [6] | inhibition at 75 g/ha [7] | inhibition at 1200 g/ha [8] | inhibition at 1200 g/ha [9] | inhibition at 75 g/ha [10] | pest or weed control at 1200 g/ha [11] | pest or weed control at 1200 g/ha [12] | inhibition at 75 g/ha [13] | inhibition at 75 g/ha [14]

CC(C)[C@]12C[C@@H](OCc3ccccc3C#N)[C@](C)(C[C@@H]1I)O2 [1-768, 2-[[(l S,2R,4R,5S)-5-iodo-4-isopropyl-l-methyl-7-oxabicyclo[2.2.1]heptan-2-yl]oxymethyl]benzonitrile]
≥ 80%: weed inhibition rate [1] | weed inhibition rate [2] | weed inhibition rate [3] | weed inhibition rate [4] | weed inhibition rate [5] | weed inhibition rate [6] | weed inhibition rate [7] | weed inhibition rate [8] | weed inhibition rate [9] | weed inhibition rate [10] | weed inhibition rate [11] | weed inhibition rate [12] | weed inhibition rate [13] | weed inhibition rate [14]

CC(C)[C@]12C[C@@H](OCc3c(F)cccc3F)[C@](C)(C[C@@H]1I)O2 [1-778, (1R,2S,4S,5R)-5-[(2,6-difluorophenyl)methoxy]-2-iodo-1-isopropyl-4-methyl-7-oxabicyclo[2.2.1]heptane]
≥ 80%: inhibition at 1200 g/ha [1] | inhibition at 1200 g/ha [2] | inhibition at 1200 g/ha [3] | inhibition at 1200 g/ha [4] | inhibition at 75 g/ha [5] | inhibition at 75 g/ha [6] | inhibition at 75 g/ha [7] | inhibition at 1200 g/ha [8] | inhibition at 1200 g/ha [9] | inhibition at 75 g/ha [10] | pest or weed control at 1200 g/ha [11] | pest or weed control at 1200 g/ha [12] | inhibition at 75 g/ha [13] | inhibition at 75 g/ha [14]

CC(C)C12CC(OCc3c(F)cccc3Cl)C(C)(CC1I)O2 (stereo not drawn) [1-1448, 5-[(2-chloro-6-fluoro-phenyl)methoxy]-2-iodo-1-isopropyl-4-methyl-7-oxabicyclo[2.2.1]heptane]
≥ 80%: inhibition at 1200 g/ha [1] | inhibition at 1200 g/ha [2] | inhibition at 1200 g/ha [3] | inhibition at 1200 g/ha [4] | inhibition at 75 g/ha [5] | inhibition at 75 g/ha [6] | inhibition at 75 g/ha [7] | inhibition at 1200 g/ha [8] | inhibition at 1200 g/ha [9] | inhibition at 75 g/ha [10] | pest or weed control at 1200 g/ha [11] | pest or weed control at 1200 g/ha [12] | inhibition at 75 g/ha [13] | inhibition at 75 g/ha [14]

CC(C)C12CC(OCc3ccccn3)C(C)(CC1Br)O2 (stereo not drawn) [1-1386, 2-[(5-bromo-1-methyl-4-isopropyl-7-oxabicyclo[2.2.1]heptan-2-yl)oxymethyl]pyridine]
≥ 80%: inhibition at 1200 g/ha [1] | inhibition at 1200 g/ha [2] | inhibition at 1200 g/ha [3] | inhibition at 1200 g/ha [4] | inhibition at 75 g/ha [5] | inhibition at 75 g/ha [6] | inhibition at 75 g/ha [7] | inhibition at 1200 g/ha [8] | inhibition at 1200 g/ha [9] | inhibition at 75 g/ha [10] | pest or weed control at 1200 g/ha [11] | pest or weed control at 1200 g/ha [12] | inhibition at 75 g/ha [13] | inhibition at 75 g/ha [14]

CC(C)C12CC(OCc3ccsc3)C(C)(CC1Cl)O2 (stereo not drawn) [1-1324, 2-chloro-1-isopropyl-4-methyl-5-(3-thienylmethoxy)-7-oxabicyclo[2.2.1]heptane]
≥ 80%: inhibition at 1200 g/ha [1] | inhibition at 1200 g/ha [2] | inhibition at 1200 g/ha [3] | inhibition at 1200 g/ha [4] | inhibition at 75 g/ha [5] | inhibition at 75 g/ha [6] | inhibition at 75 g/ha [7] | inhibition at 1200 g/ha [8] | inhibition at 1200 g/ha [9] | inhibition at 75 g/ha [10] | pest or weed control at 1200 g/ha [11] | pest or weed control at 1200 g/ha [12] | inhibition at 75 g/ha [13] | inhibition at 75 g/ha [14]

Cc1cccc(C)c1COC1CC2(C(C)C)OC1(C)CC2Cl (stereo not drawn) [1-1610, 5-chloro-2-[(2,6-dimethylphenyl)methoxy]-1-methyl-4-isopropyl-7-oxabicyclo[2.2.1]heptane]
≥ 80%: inhibition at 1200 g/ha [1] | inhibition at 1200 g/ha [2] | inhibition at 1200 g/ha [3] | inhibition at 1200 g/ha [4] | inhibition at 75 g/ha [5] | inhibition at 75 g/ha [6] | inhibition at 75 g/ha [7] | inhibition at 1200 g/ha [8] | inhibition at 1200 g/ha [9] | inhibition at 75 g/ha [10] | pest or weed control at 1200 g/ha [11] | pest or weed control at 1200 g/ha [12] | inhibition at 75 g/ha [13] | inhibition at 75 g/ha [14]

— EP4707280A1, “1,4-CINEOLE DERIVATIVE AND INTERMEDIATE THEREOF, HERBICIDE CONTAINING SAID DERIVATIVE AS ACTIVE INGREDIENT, METHOD FOR USING HERBICIDE, AND METHOD FOR PREPARING AGROCHEMICAL COMPOSITION” (HOKKO CHEMICAL INDUSTRY CO., LTD., priority 2023, dated 2024)
